Assay results published in PubChem BioAssay (NCI).
Where “and” joins values, the source holds several entries; their conditions need not be identical. Equal values may be shown once.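 Tested at 5 concentrations; 48 h exposure; 96-well plates; endpoints linearly interpolated, else capped at highest concentration. Here, GI50 denotes the concentration required for 50% inhibition of growth. The concentration for full growth arrest is given as TGI.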

Experiments:
Experiment in all cases: NCI-60 cell line screen, 48 h
SF-295 CNS = tested on: SF-295 CNS
OVCAR-8 ovarian = tested on: OVCAR-8 ovarian
PC-3 prostate = tested on: PC-3 prostate
EKVX NSCLC = tested on: EKVX NSCLC
SK-MEL-5 melanoma = tested on: SK-MEL-5 melanoma
CAKI-1 renal = tested on: CAKI-1 renal
SK-MEL-2 melanoma = tested on: SK-MEL-2 melanoma
RXF 393 renal = tested on: RXF 393 renal
DU-145 prostate = tested on: DU-145 prostate
OVCAR-5 ovarian = tested on: OVCAR-5 ovarian
SW-620 colon = tested on: SW-620 colon
ACHN renal = tested on: ACHN renal
NCI-H226 lung = tested on: NCI-H226 lung
RPMI-8226 leukemia = tested on: RPMI-8226 leukemia

SMILES	TGI (SF-295 CNS) [µM]	TGI (OVCAR-8 ovarian)	TGI (PC-3 prostate) [µM]	TGI (EKVX NSCLC)	TGI (SK-MEL-5 melanoma)	TGI (CAKI-1 renal) [µM]	TGI (SK-MEL-2 melanoma)	TGI (RXF 393 renal)	TGI (DU-145 prostate) [µM]	TGI (OVCAR-5 ovarian) [µM]	TGI (SW-620 colon)	TGI (ACHN renal) [µM]	TGI (NCI-H226 lung) [µM]	TGI (RPMI-8226 leukemia)	GI50 (OVCAR-8 ovarian) [µM]	GI50 (EKVX NSCLC)	GI50 (RXF 393 renal)	GI50 (SW-620 colon) [µM]	GI50 (RPMI-8226 leukemia)
NS(=O)(=O)c1ccc(NC(=S)/N=C/c2c(O)c3ccccc3[nH]c2=O)cc1	> 100	> 100 µM	> 100	> 100 µM	> 100 µM	> 100	> 100 µM	> 100 µM	> 100	> 100	> 100 µM	> 100	> 100	> 100 µM					
COc1ccc(/C=C/C(=O)c2cccc(C(=O)/C=C/c3ccc(OC)c(OC)c3)n2)cc1OC	> 100	18.3 µM	> 100	> 100 µM	> 100 µM	> 100	> 100 µM	> 86.1 µM	> 100	> 91.2	15.9 µM	> 100	> 100	> 22.6 µM					
CN(C(=O)C12C3C4C1C1C2C3C41C(=O)O)C(C)(C)C (stereo unspecified)	> 100	> 100 µM	> 100	> 100 µM	> 100 µM	> 100	> 100 µM	> 100 µM	> 100	> 100	> 100 µM	> 100							
COc1cc(/C=C2\N=C(c3ccccc3)N(c3ccc(S(=O)(=O)Nc4nccs4)cc3)C2=O)ccc1O	> 100	> 100 µM	> 100	> 100 µM	> 100 µM	> 100	> 100 µM	> 100 µM	> 100	> 100	> 100 µM	> 100	> 100	> 100 µM					
O=c1cnn(C/C=C/CP(=O)(O)O)c(=O)[nH]1		> 100 µM	> 100	> 100 µM	> 100 µM	> 100	> 100 µM	> 100 µM	> 100	> 100	> 100 µM	> 100	> 100	> 100 µM					
COc1ccc(-c2c(C#N)c(N)n(C3OCC(O)C(O)C3O)c(=S)c2C#N)cc1 (stereo unspecified)	> 100	> 100 µM	> 100		> 100 µM	> 100	> 100 µM	> 100 µM	> 100	> 100	> 100 µM	> 100	> 100	> 100 µM					
Cc1cccc(/C=N/NC(=S)NC2CCCCC2)n1	> 100	> 69 µM	> 100	> 100 µM	> 100 µM	> 100	> 100 µM	76.1 µM	> 100	> 100	> 100 µM	> 85.2	> 74.8	45.4 µM					
CN(C)c1ccc(/C=C(\NC(=O)c2ccccc2)c2nc3ccccc3c(=O)o2)cc1	> 100	> 100 µM	> 100	> 100 µM	> 100 µM	> 100	> 100 µM	> 100 µM	> 100	> 100	> 100 µM	> 100	> 100	> 100 µM					
CCOC(=O)C(C)c1nc2cc(F)c(N3CCOCC3)cc2[nH]c1=O (stereo unspecified)	> 100	> 100 µM	> 100	> 100 µM	> 100 µM	> 100	> 100 µM	> 100 µM	> 100	> 100	> 100 µM	> 100	> 100	> 100 µM					
CCC(C)C1=C(O)[N+]2([O-])Oc3ccc(-c4c(O)c(O)c(-c5ccc(O)cc5)c(OC(C)=O)c4OC(C)=O)cc3OC2(C(C)CC)C(=O)N1O (stereo unspecified)	> 50	> 50 µM	> 50	> 50 µM	> 50 µM	> 50	> 50 µM	> 50 µM	> 50	> 50	> 50 µM	> 50	> 50	> 50 µM					
N#CCN(Cc1ccccc1)[C@H]1CCC[C@]1(O)/C=C/c1ccc2c(c1)OCO2	31.4	32.5 µM	35.7	> 100 µM	30.1 µM	> 100	42.8 µM	77.3 µM	> 100	> 100	43.3 µM	> 100	44.4	46 µM					
COC(=O)C1C(O)C(C)C(O)C(C)/C=C\C=C(C)C(=O)Nc2c(C)c(OC(C)=O)c3c(c2O)C(=O)C(C)=C2OCOC(=C23)C(C)=CC(C)(O)C(O)C(C)C1O (stereo unspecified)	> 100	47 µM and > 100 µM	> 100	73.7 µM and > 100 µM	74.5 µM and > 100 µM	> 62.2	36.2 µM and > 100 µM	51.9 µM and > 100 µM	> 100	> 100	39.6 µM and > 100 µM	> 100	> 100	41.3 µM and > 100 µM	23.6	48 µM and > 100 µM	20.9 µM and > 100 µM	20.1	15.9 µM and 64.3 µM
O=C(c1c(F)c(F)c(F)c(F)c1F)n1c(=O)[nH]c2ccccc21	30.6	27 µM	21.8	29.3 µM	28.7 µM	11.3	17.5 µM	22 µM	29.6	29.7	16.1 µM	29.7	33.4	25.1 µM					
O=c1[nH]nc(Cc2ccccc2)n1N=C1CCCCC1	> 100	> 100 µM	> 100	> 100 µM	> 100 µM	> 100	> 100 µM	> 100 µM	> 100	> 100	> 100 µM	> 100	> 100	> 100 µM					
Clc1ccccc1-c1nn2c(CCCCCCCCc3nnc4sc(-c5ccccc5Cl)nn34)nnc2s1	> 100	> 100 µM	> 100	> 100 µM	> 100 µM	> 100	> 100 µM	> 100 µM	> 100	> 100	> 100 µM	> 100	> 100	> 100 µM					
C=CCN1C(=O)/C(=C/c2ccccc2)N=C1SC/C=C/C	> 100	> 100 µM	55.8		47.6 µM	> 100	63 µM	46.7 µM	> 100		> 100 µM	> 100	> 100	49 µM					
CSC1=C(C)S/C(=C\c2ccc(/C=C3\SC(C)=C(SC)S3)cc2)S1	> 100	> 100 µM	> 100	> 100 µM	> 100 µM	> 100	> 100 µM	79 µM	> 100	> 100	> 100 µM	> 100	> 100						
COC(=O)/N=[N+](\[O-])C(c1ccc(Cl)cc1)c1ccc(Cl)cc1		> 100 µM	> 100	> 100 µM	78.6 µM	34.5	> 100 µM	84.1 µM	> 100	> 100	> 100 µM		89.6	67.3 µM					
O=S(=O)(O)c1cc(S(=O)(=O)O)c2c(N=Nc3ccccc3)c(O)ccc2c1	> 100	> 100 µM	> 100		> 100 µM	> 100	> 100 µM	> 100 µM	> 100	> 100	> 100 µM		> 100	> 100 µM					
COc1ccccc1-c1n[nH]c(-c2ccccc2O)n1	> 100	> 100 µM	> 100		> 100 µM	> 100	> 100 µM	> 100 µM	> 100	> 100	> 100 µM	> 100	> 100	> 100 µM					
CCOC(=O)N(C)CCC1CC=CC(=O)C1c1cccc(OC)c1OC (stereo unspecified)	98.8	> 100 µM	> 100	89.8 µM	22 µM	91.6	35 µM	27.5 µM	44.4	46.7	> 100 µM	> 100		46.6 µM					
CN(C)Cc1cc(N=Nc2c(Cl)cccc2Cl)ccc1O	> 100	> 100 µM	> 100	> 100 µM	52.1 µM	> 100	> 100 µM	> 100 µM	> 100		> 100 µM	> 100	> 100	> 100 µM					
CCCCC1=C(C(=O)N2CCOCC2)C2(OCCO2)C1Cl (stereo unspecified)	> 100	> 100 µM	> 100	> 100 µM	39.6 µM	86.5	51.6 µM	81.6 µM	> 100	45.5	89.5 µM	52.1	> 100						
CC1CC/C(=C\c2ccc(Cl)cc2)C(=O)/C1=C\c1ccc(Cl)cc1 (stereo unspecified)		> 100 µM	> 100	63.7 µM	40.1 µM	44.9	37.9 µM	71.7 µM	> 100	44.6	> 100 µM	> 100							
CC(C)C(=O)CC(Sc1ccc(N)cc1)c1ccccc1 (stereo unspecified)	> 100	96.9 µM	> 100		68.2 µM	> 100	61.8 µM	89.1 µM	> 100	> 100	34.8 µM	58.3	> 100	63.1 µM					
